Results published in patent US11787816B2, “Chlorin compound, and preparation and use thereof” (Southwest Jiaotong University, priority 2021, dated 2023).

Experiments:
[1] = system: murine mammary carcinoma 4T1 cells; assay: Antitumor activity as sonosensitizers (SDT) on tumor-bearing mice; format: in vivo; conditions: for Inhibitory rate (average ± SD, %) / Tumor weight (average ± SD, g): SDT 1.0 MHz, 3.0 W/cm^2, 3 min, 6 h after dosing, 7 days after SDT; for Body weight At the beginning / Body weight At the end: SDT, mice, in g (unit assumed)
Experimental: (§1) The murine mammary carcinoma cells (4T1 line) were subjected to adherent culture. After growing to a confluence of 70%-80%, the cells in the culture flask were routinely digested, centrifuged and counted, and then resuspended with 0.85% normal saline to a density of 1×10^7 cells/mL. The cell suspension was injected into the left lateral middle axillary subcutaneous part of […] Bal b/c healthy mice (female, aged 6-8 weeks) at 0.1 mL/mouse. When the tumor diameter, which was observed every other day, reached 0.6-0.8 cm, the mice with well-growing tumors and no ulcers on the epidermis were selected for grouped treatment.
Mice with similar body weight and uniform tumor size are selected and randomly divided into 6 groups with 6 mice for each group. 48 h after inoculation, the mice were subjected to drug administration separately from the tail vein by group.
[…] 6 h after drug administration, each group of mice was anesthetized by intraperitoneal injection with 0.2 mL of 1% pentobarbital sodium. Then the mice were fixed to allow the tumor growth site exposed. The SDT group was treated using an ultrasonic therapeutic apparatus at an impulse waveform of 1.0 MHz and power of 3.0 W/cm^2 for 3 min. 7 days after SDT, the animals were sacrificed. The tumor was stripped and weighed, and the body weight was recorded.

[2] = system: murine mammary carcinoma 4T1 cells; assay: Antitumor activity as photosensitizers on tumor-bearing mice (one PDT treatment); format: in vivo; conditions: for Inhibitory rate (average ± SD, %) / Tumor weight (average ± SD, g): 660 nm, 75 Joule/cm^2 6 h after dosing, 7 days after PDT; for Body weight At the begining / Body weight At the end: one PDT treatment, mice, in g (unit assumed)
Experimental: as §1
(1) Mice with similar body weight and uniform tumor size are selected and randomly divided into 7 groups with 6 mice for each group. After inoculation for 48 h, the mice were subjected to drug administration separately from the tail vein by group.
6 h after the drug administration, the mice were fixed to expose the tumor growth site. Light irradiation was performed for 8 min, using PDT-660 photodynamic therapy equipment at a laser wavelength of 660 nm and a light dose of 75 Joule/cm^2. Then both of the mice growth and tumor growth are observed continuously. 7 days after photodynamic therapy, the animals were sacrificed. The tumor was stripped and weighed, and the body weight was recorded.

3-n-hexylaminomethyl-3-devinyl-chlorin e4 disodium salt [CEFN]
Inhibitory rate (average ± SD, %) ([1]; 2.5 mg/kg tail vein): 42.1 ± 4.2% | Tumor weight (average ± SD, g) ([1]; 2.5 mg/kg tail vein): 0.099 ± 0.007 g | Body weight At the beginning ([1]; 2.5 mg/kg): 20.5 ± 0.3 | Body weight At the end ([1]; 2.5 mg/kg): 21.6 ± 0.2 | Inhibitory rate (average ± SD, %) ([1]; 5 mg/kg tail vein): 66.7 ± 3.0% | Tumor weight (average ± SD, g) ([1]; 5 mg/kg tail vein): 0.057 ± 0.005 g | Body weight At the beginning ([1]; 5 mg/kg): 20.3 ± 0.2 | Body weight At the end ([1]; 5 mg/kg): 21.3 ± 0.3 | Inhibitory rate (average ± SD, %) ([2]; 0.2 mg/kg tail vein): 68.5 ± 1.7% | Tumor weight (average ± SD, g) ([2]; 0.2 mg/kg tail vein): 0.051 ± 0.003 g | Body weight At the begining ([2]; 0.2 mg/kg): 20.6 ± 0.6 | Body weight At the end ([2]; 0.2 mg/kg): 21.7 ± 0.5 | Inhibitory rate (average ± SD, %) ([2]; 0.4 mg/kg tail vein): 82.7 ± 3.7% | Tumor weight (average ± SD, g) ([2]; 0.4 mg/kg tail vein): 0.028 ± 0.006 g | Body weight At the begining ([2]; 0.4 mg/kg): 20.5 ± 0.4 | Body weight At the end ([2]; 0.4 mg/kg): 21.6 ± 0.5

3-hexoxymethyl-3-devinyl-chlorin e4 disodium salt [CEFO]
Inhibitory rate (average ± SD, %) ([1]; 2.5 mg/kg tail vein): 64.3 ± 4.3% | Tumor weight (average ± SD, g) ([1]; 2.5 mg/kg tail vein): 0.061 ± 0.007 g | Body weight At the beginning ([1]; 2.5 mg/kg): 20.4 ± 0.3 | Body weight At the end ([1]; 2.5 mg/kg): 21.4 ± 0.3 | Inhibitory rate (average ± SD, %) ([1]; 5 mg/kg tail vein): 84.2 ± 2.9% | Tumor weight (average ± SD, g) ([1]; 5 mg/kg tail vein): 0.027 ± 0.004 g | Body weight At the beginning ([1]; 5 mg/kg): 20.2 ± 0.2 | Body weight At the end ([1]; 5 mg/kg): 21.3 ± 0.2 | Inhibitory rate (average ± SD, %) ([2]; 0.2 mg/kg tail vein): 87.0 ± 3.1% | Tumor weight (average ± SD, g) ([2]; 0.2 mg/kg tail vein): 0.021 ± 0.005 g | Body weight At the begining ([2]; 0.2 mg/kg): 20.4 ± 0.3 | Body weight At the end ([2]; 0.2 mg/kg): 21.5 ± 0.3 | Inhibitory rate (average ± SD, %) ([2]; 0.4 mg/kg tail vein): 97.5 ± 0.4% | Tumor weight (average ± SD, g) ([2]; 0.4 mg/kg tail vein): 0.004 ± 0.001 g | Body weight At the begining ([2]; 0.4 mg/kg): 20.7 ± 0.4 | Body weight At the end ([2]; 0.4 mg/kg): 21.8 ± 0.4
